# Where no end group is shown, it is not given here.
# Assay: pair feeding in rats (food intake and body weight)
# Format: in vivo, Male Wistar rats
# Conditions: for body weight gain versus corresponding pair-fed (PF) group: 10 days; for body weight gain versus corresponding pair-fed (PF) group / overall body weight change by the end of the 10 day test period versus saline control: FIG. 12b; for total food intake over 10 days / overall body weight change by the end of the 10 day test period versus saline control: daily injection, exendin-4 30, 285 100, 373 50, 398 200 nmol/kg; for total food intake over 10 days: FIG. 12a
# Excerpt: Pair feeding is a technique used to separate the weight loss observed in a cohort of animals which has been caused by appetite suppression from the weight loss caused by the induction of metabolic changes. Pair-feeding studies require daily measurement of body weight (BW) and food intake (FI). In pair-feeding studies, rats were divided into three weight-matched groups. Group 1 (the “saline” group) were given a daily injection of saline and allowed access to ad libitum food. Group 2 (identified by the code of the compound administered) were given daily injection of a selected compound of the invention and allowed access to ad libitum food.
substance,measurement,setting,value
His Ser Gln Gly Thr Phe Thr Ser Asp Tyr Ser Lys Tyr Leu Glu Ser Gln Ala Val His Leu Phe Ile Glu Trp Leu Lys Asn Gly-NH2 (HSQGTFTSDYSKYLESQAVHLFIEWLKNG-NH2) [compound 373],body weight gain versus corresponding pair-fed (PF) group,,lower weight gains than the corresponding paired feeding groups
same,total food intake over 10 days,,less overall food intake
same,overall body weight change by the end of the 10 day test period versus saline control,,lower body weight gain than the saline control group
His Ser Gln Gly Thr Phe Thr Ser Asp Tyr Ser His Tyr Leu Asp Ser Lys Ala Val His Leu Phe Ile Gln Trp Leu Leu Asn Gly-NH2 (HSQGTFTSDYSHYLDSKAVHLFIQWLLNG-NH2) [compound 285],body weight gain versus corresponding pair-fed (PF) group,,lower weight gains than the corresponding paired feeding groups
same,total food intake over 10 days,,less overall food intake
same,overall body weight change by the end of the 10 day test period versus saline control,,lower body weight gain than the saline control group
His Ser Gln Gly Thr Phe Thr Ser Asp Tyr Ser Lys Tyr Leu Asp Ser Gln Ala Val Arg Leu Phe Ile Glu Trp Leu Leu Asn Gly-NH2 (HSQGTFTSDYSKYLDSQAVRLFIEWLLNG-NH2) [compound 398],body weight gain versus corresponding pair-fed (PF) group,,lower weight gains than the corresponding paired feeding groups
same,total food intake over 10 days,,less overall food intake
same,overall body weight change by the end of the 10 day test period versus saline control,,lower body weight gain than the saline control group
HSQGTFTSDYSKYLDSQAVHLFIQWLLNGGPSSGAPPPS [compound 237],body weight compared to the saline control,100 nmol/kg daily,reduction in body weight compared to the saline control
same,body weight reduction versus pair-fed (G237 PF) group,100 nmol/kg daily,not solely mediated by a reduction in food intake

# From US9944687B2, “Compounds and their effects on feeding behaviour” (Imperial Innovations Limited, priority 2011, dated 2018)
